Measured values: ChEMBL document CHEMBL1126718, “Potent in vitro and in vivo inhibitors of platelet aggregation based upon the Arg-Gly-Asp-Phe sequence of fibrinogen. A proposal on the nature of the binding interaction between the Arg-guanidine of RGDX mimetics and the platelet GP IIb-IIIa receptor” (J Med Chem, 1993)
Peptide text beside a SMILES is read from it.

What was measured:
[1] = species on record: Canis familiaris; assay: In vitro inhibition of ADP-induced platelet aggregation in canine platelet rich plasma (PRP); type: functional; settings: Canis lupus familiaris
[2] = In vitro inhibition of ADP-induced platelet aggregation in human platelet rich plasma (PRP); type: functional
[3] = species on record: Canis familiaris; assay: In vitro inhibition of ADP-induced platelet aggregation in canine platelet rich plasma (PRP); Inactive; type: functional, Canis lupus familiaris
[4] = In vitro inhibition of ADP-induced platelet aggregation in platelet rich plasma (PRP); type: functional

Row | IC50 [1] [µM] | IC50 [2] [µM] | IC50 [3] | IC50 [4] [µM] | SMILES
1 | 0.18 |  |  |  | N=C(N)c1ccc(CC(=O)CCC(=O)N[C@@H](CC(=O)O)C(=O)N[C@@H](Cc2ccccc2)C(=O)O)cc1
2 | 0.053 | 0.042 |  |  | N=C(N)c1ccc(CCCCC(=O)N[C@@H](CC(=O)O)C(=O)N[C@@H](Cc2ccccc2)C(=O)O)cc1
3 |  |  | Not Active |  | N=C(N)c1ccc(CCCC(=O)N[C@@H](CC(=O)O)C(=O)N[C@@H](Cc2ccccc2)C(=O)O)cc1
4 | 0.082 | 0.09 |  |  | N=C(N)c1ccc(/C=C/CCC(=O)N[C@@H](CC(=O)O)C(=O)N[C@@H](Cc2ccccc2)C(=O)O)cc1
5 | 0.09 | 0.12 |  |  | N=C(N)c1ccc(C#CCCC(=O)N[C@@H](CC(=O)O)C(=O)N[C@@H](Cc2ccccc2)C(=O)O)cc1
6 | 4.3 | 3.2 |  |  | N=C(N)c1cccc(/C=C/CCCC(=O)N[C@@H](CC(=O)O)C(=O)N[C@@H](Cc2ccccc2)C(=O)O)c1
7 | 5.8 |  |  |  | N=C(N)c1cccc(CCCCCC(=O)N[C@@H](CC(=O)O)C(=O)N[C@@H](Cc2ccccc2)C(=O)O)c1
8 |  |  |  | 90 | N=C(N)NCCC[C@H](N)C(=O)NCC(=O)N[C@@H](CC(=O)O)C(=O)N[C@@H](Cc1ccccc1)C(=O)O (H-RGDF-OH)
